Laboratory results reported in US20240092758A1, “IMIDAZOLO INDAZOLE COMPOUNDS AS JAK INHIBITORS” (Theravance Biopharma R&D IP, LLC, priority 2021, published 2024).

Tests used:
[1] = target: JAK2 (Homo sapiens (Human), UniProt O60674); experiment: Biochemical JAK kinase assay (LanthaScreen), JAK2; details: for Ki: read-out: JAK2 pKi (converted)
Summary of the method: (§1)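 LanthaScreen format: phospho-STAT1 (pTyr701) detected with 2 nM Tb antibody after 10 mM EDTA quench. Kinase step used Km-level ATP and 200 nM STAT1 peptide, 1 h at ambient after 1 h pre-incubation. Inhibition fitted to IC50, reported as pKi.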

[2] = target: JAK1 (Homo sapiens (Human), UniProt P23458); experiment: Biochemical JAK kinase assay (LanthaScreen), JAK1; details: for Ki: read-out: JAK1 pKi (converted)
JAK1, sequence (P23458 whole entry): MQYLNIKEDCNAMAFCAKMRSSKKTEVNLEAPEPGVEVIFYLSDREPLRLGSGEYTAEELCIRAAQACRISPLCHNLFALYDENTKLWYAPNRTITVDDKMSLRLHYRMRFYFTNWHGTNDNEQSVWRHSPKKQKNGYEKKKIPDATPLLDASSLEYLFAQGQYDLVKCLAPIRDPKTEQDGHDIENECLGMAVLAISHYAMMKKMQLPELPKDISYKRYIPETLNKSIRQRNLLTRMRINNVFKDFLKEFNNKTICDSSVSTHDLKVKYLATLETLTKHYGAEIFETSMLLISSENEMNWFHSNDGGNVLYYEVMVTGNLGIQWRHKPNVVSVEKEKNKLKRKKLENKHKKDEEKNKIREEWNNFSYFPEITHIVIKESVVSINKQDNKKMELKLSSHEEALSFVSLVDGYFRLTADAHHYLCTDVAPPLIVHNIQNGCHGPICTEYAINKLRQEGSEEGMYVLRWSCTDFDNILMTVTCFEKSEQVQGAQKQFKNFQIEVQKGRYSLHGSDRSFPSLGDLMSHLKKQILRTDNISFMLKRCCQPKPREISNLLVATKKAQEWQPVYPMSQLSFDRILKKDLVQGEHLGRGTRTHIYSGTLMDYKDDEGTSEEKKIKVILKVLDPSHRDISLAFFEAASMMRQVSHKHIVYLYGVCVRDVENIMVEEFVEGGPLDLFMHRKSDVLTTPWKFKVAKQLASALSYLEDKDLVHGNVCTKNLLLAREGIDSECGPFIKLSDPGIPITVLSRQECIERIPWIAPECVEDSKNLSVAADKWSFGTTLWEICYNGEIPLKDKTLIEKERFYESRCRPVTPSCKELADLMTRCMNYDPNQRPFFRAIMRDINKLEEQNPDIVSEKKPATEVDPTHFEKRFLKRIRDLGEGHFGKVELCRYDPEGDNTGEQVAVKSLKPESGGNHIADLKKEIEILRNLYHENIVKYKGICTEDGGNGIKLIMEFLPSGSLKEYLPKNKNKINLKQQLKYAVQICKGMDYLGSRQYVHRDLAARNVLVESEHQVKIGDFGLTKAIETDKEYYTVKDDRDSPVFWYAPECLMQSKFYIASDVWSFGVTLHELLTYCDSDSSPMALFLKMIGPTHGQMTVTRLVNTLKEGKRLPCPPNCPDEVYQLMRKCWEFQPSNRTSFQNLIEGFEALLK
Summary of the method: as §1

[3] = Pharmacokinetics in plasma and lung in mouse after oral aspiration administration; type: in vivo; details: male CD1 mice; for Lung Tissue AUC(0-24) / AUC(0-t): 0.2 mg/mL, two 25 μL increments; for Lung Tissue:Plasma AUC ratio: lung AUC to plasma AUC; for AUC(0-t): mouse, inhaled or intranasal, 0.01 mg/mouse, plasma, read-out: Plasma AUC(0-24)
Procedure: Plasma and lung concentrations of test compounds were quantified and pharmacokinetic parameters were calculated in the following manner. Male CD1 mice from Charles River Laboratories were used in the pharmacokinetic studies. Test compounds were individually formulated in 20% propylene glycol in pH 4 citrate buffer at a concentration of 0.2 mg/mL. Test compounds were administered in two, 25 μL increments introduced into the trachea of each mouse by oral aspiration using a calibrated pipette once the animal was anesthetized using isoflurane. Blood samples were collected as terminal collections via cardiac puncture at 0.167, 1, 4, 8, and 24 hr post-dosing. Following […] with CO2, a direct cardiac puncture was performed while avoiding puncturing the lung and blood was immediately transferred into K2EDTA tubes and placed on wet ice. Blood samples were centrifuged (Eppendorf centrifuge, 5804R) for 4 minutes at approximately 12,000 rpm at 4° C. to collect plasma. Intact lungs were also excised from these mice using the same timepoints (0.167, 1, 4, 8, and 24 hr). Lungs were washed with sterile water to remove any blood residue and were patted dry, weighed, and homogenized in 0.1% formic acid in water at a dilution of 1:3 (lung:water, weight/volume). Plasma and lung concentrations of test compounds were determined by LC-MS/MS analysis against analytical standards constructed into a standard curve in the test matrix. The pharmacokinetic parameters of test compounds were determined by non-compartmental analysis. For concentrations below the limit of quantification, zero was used for mean calculations. Mean values were not reported if more than 50% of the samples were below the limit of quantification at a timepoint, or if more than 50% of a calculated pharmacokinetic parameter was not reportable. The area under the concentration-time curve extrapolated to infinity (AUC(0-inf)) was calculated as follows: AUC(0-inf)=AUC(0-t)+Clast/k, where AUC(0-t) is the area under the concentration-time curve from the time of dosing to the last measurable concentration calculated by the linear trapezoidal rule, Clast is the last measurable concentration, and k is the first order rate constant associated with the terminal elimination phase, estimated by linear regression of time versus log concentration. The lung-to-plasma AUC ratio was determined as the ratio of the lung AUC(0-inf) in μg*hr/g to the plasma AUC(0-inf) in μg*hr/mL.

[4] = tested on: IL-13 induced STAT6 phosphorylation in BEAS-2B human lung epithelial cells; experiment: Cellular JAKI potency assay (BEAS-2B); type: cell-based; details: Homo sapiens, BEAS-2B, BEAS-2B cells, read-out: BEAS2B pIC50 (converted)
Summary of the method: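 BEAS-2B cells were preincubated with compound (0.1% DMSO) in HBSS/HEPES/BSA for 1 h at 37 °C, then stimulated with IL-13 (80 ng/mL before addition) for 30 min. After lysis, pSTAT6 (Tyr641) was quantified by AlphaLISA SureFire; IC50 from a 4-parameter fit of percent inhibition, reported as pIC50.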

JAK2, sequence (O60674 whole entry): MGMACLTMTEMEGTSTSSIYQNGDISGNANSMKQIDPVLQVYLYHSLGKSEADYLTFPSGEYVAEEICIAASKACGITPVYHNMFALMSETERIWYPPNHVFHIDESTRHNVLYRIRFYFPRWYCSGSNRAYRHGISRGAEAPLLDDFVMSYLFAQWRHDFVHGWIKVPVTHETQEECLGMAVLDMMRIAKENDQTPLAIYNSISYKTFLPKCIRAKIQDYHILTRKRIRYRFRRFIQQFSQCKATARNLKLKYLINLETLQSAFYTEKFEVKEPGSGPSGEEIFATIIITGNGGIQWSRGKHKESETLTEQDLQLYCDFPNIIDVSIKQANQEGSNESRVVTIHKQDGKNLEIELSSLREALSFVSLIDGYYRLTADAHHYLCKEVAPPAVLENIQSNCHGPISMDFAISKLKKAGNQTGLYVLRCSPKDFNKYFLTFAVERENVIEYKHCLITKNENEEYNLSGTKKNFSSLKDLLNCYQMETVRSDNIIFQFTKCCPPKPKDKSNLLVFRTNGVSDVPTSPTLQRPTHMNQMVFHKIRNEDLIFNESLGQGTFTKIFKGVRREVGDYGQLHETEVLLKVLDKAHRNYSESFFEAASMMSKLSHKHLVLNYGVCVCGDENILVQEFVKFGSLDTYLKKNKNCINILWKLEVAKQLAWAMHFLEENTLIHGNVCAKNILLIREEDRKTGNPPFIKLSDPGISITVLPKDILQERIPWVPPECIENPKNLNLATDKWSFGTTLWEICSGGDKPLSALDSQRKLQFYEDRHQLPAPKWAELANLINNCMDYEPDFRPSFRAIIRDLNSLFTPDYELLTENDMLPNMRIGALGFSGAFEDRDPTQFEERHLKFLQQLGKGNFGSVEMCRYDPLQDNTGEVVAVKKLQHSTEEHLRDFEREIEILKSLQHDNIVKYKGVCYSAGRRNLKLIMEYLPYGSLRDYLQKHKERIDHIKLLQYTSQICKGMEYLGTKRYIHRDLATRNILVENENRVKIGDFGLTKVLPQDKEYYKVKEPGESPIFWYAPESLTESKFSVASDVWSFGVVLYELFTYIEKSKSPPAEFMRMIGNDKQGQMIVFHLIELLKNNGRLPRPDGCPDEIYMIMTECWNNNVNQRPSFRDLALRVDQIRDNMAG

SMILES: CCc1cc(O)ccc1-c1ccc2c(-c3nc(C4=CCN(C[C@H](C)CO)CC4)c[nH]3)n[nH]c2c1F [Example 38]
- Ki [1]: 0.1 to 1 nM
- JAK1 pKi [2]: A (A represents a pKi value ≥10 (Ki≤0.1 nM))
- Lung Tissue AUC(0-24) [3]: C (C denotes a value between 9 and 50)
- Lung Tissue:Plasma AUC ratio [3]: D (D denotes a ratio between 50 and 100)
- AUC(0-t) [3]: < 500 ng·h/mL
- IC50 [4]: 10 to 31.6 nM

SMILES: CCc1cc(O)ccc1-c1ccc2c(-c3nc(C4=CCN(CCC(C)(C)O)C4)c[nH]3)n[nH]c2c1 [Example 51]
- JAK2 pKi [1]: A (A represents a pKi value ≥10 (Ki≤0.1 nM))
- JAK1 pKi [2]: A (A represents a pKi value ≥10 (Ki≤0.1 nM))
- Lung Tissue AUC(0-24) [3]: C (C denotes a value between 9 and 50)
- Lung Tissue:Plasma AUC ratio [3]: C (C denotes a ratio between 100 and 200)
- AUC(0-t) [3]: < 500 ng·h/mL
- IC50 [4]: 3.16 to 10 nM

SMILES: CCc1cc(O)ccc1-c1ccc2c(-c3nc(C4=CCN(C5CCNC5=O)C4)c[nH]3)n[nH]c2c1 (stereo not drawn) [Example 94]
- JAK2 pKi [1]: A (A represents a pKi value ≥10 (Ki≤0.1 nM))
- Ki [2]: 0.1 to 1 nM
- Lung Tissue AUC(0-24) [3]: C (C denotes a value between 9 and 50)
- Lung Tissue:Plasma AUC ratio [3]: E (E denotes a ratio between 30 and 50)
- AUC(0-t) [3]: < 500 ng·h/mL
- IC50 [4]: 10 to 31.6 nM

SMILES: CCc1cc(O)ccc1-c1ccc2c(-c3nc(C4=CCN(CCNS(C)(=O)=O)CC4)c[nH]3)n[nH]c2c1F [Example 106]
- JAK2 pKi [1]: A (A represents a pKi value ≥10 (Ki≤0.1 nM))
- Ki [2]: 0.1 to 1 nM
- Lung Tissue AUC(0-24) [3]: C (C denotes a value between 9 and 50)
- Lung Tissue:Plasma AUC ratio [3]: C (C denotes a ratio between 100 and 200)
- AUC(0-t) [3]: < 500 ng·h/mL
- IC50 [4]: 10 to 31.6 nM

SMILES: CCc1cc(O)ccc1-c1ccc2c(-c3nc(C4=C(C)CCNC4)c[nH]3)n[nH]c2c1F [Example 236]
- Ki [1]: 0.1 to 1 nM
- Ki [2]: 0.1 to 1 nM
- Lung Tissue AUC(0-24) [3]: B (B denotes a value between 50 and 100)
- Lung Tissue:Plasma AUC ratio [3]: C (C denotes a ratio between 100 and 200)
- AUC(0-t) [3]: 500 to 1000 ng·h/mL
- IC50 [4]: 10 to 31.6 nM

SMILES: CCc1cc(O)ccc1-c1ccc2c(-c3nc(C4=C[C@H](COC)NC4)c[nH]3)n[nH]c2c1 [Example 241]
- Ki [1]: 0.1 to 1 nM
- Ki [2]: 0.1 to 1 nM
- Lung Tissue AUC(0-24) [3]: C (C denotes a value between 9 and 50)
- Lung Tissue:Plasma AUC ratio [3]: D (D denotes a ratio between 50 and 100)
- AUC(0-t) [3]: 500 to 1000 ng·h/mL
- IC50 [4]: 3.16 to 10 nM

SMILES: CCc1cc(O)ccc1-c1ccc2c(-c3nc(C4=C[C@H](CC(=O)N(C)C)NC4)c[nH]3)n[nH]c2c1F [Example 255]
- JAK2 pKi [1]: A (A represents a pKi value ≥10 (Ki≤0.1 nM))
- JAK1 pKi [2]: A (A represents a pKi value ≥10 (Ki≤0.1 nM))
- Lung Tissue AUC(0-24) [3]: A (For the Lung Tissue AUC(0-24), A denotes a value between 100 and 200)
- Lung Tissue:Plasma AUC ratio [3]: D (D denotes a ratio between 50 and 100)
- AUC(0-t) [3]: 1000 to 1500 ng·h/mL
- IC50 [4]: 10 to 31.6 nM
